We go through seven molecules from patent publication US20240158446A1, “CYCLIC COMPOUND HAVING SELECTIVE INHIBITORY ACTION ON KRAS OVER HRAS AND NRAS” (CHUGAI SEIYAKU KABUSHIKI KAISHA, priority 2021, published 2024).

The target in experiment [1] is GDP-bound KRAS wild-type protein (Homo sapiens, UniProt P01116). Description: Binding to KRAS by surface plasmon resonance (SPR), Single Cycle Kinetics. The conditions noted are these: GDP-bound KRAS wild-type protein, read-out: KRAS KD.
In experiment [2] the target is GDP-bound NRAS wild-type protein (Homo sapiens, UniProt P01111). As to the kind of experiment: Binding to NRAS by surface plasmon resonance (SPR), Single Cycle Kinetics. The conditions noted are these: SPR, GDP-bound NRAS wild-type protein vs GDP-bound KRAS wild-type protein. A general note: Surface plasmon resonance follows binding to a sensor surface in real time, without labels.
GDP-bound NRAS wild-type protein, sequence (P01111 whole entry): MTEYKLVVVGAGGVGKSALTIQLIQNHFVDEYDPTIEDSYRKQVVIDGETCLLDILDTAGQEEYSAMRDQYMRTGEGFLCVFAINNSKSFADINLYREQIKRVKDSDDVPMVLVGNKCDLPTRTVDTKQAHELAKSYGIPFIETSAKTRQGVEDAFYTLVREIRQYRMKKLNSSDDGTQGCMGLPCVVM

Experiment [3] has as its target GDP-bound HRAS wild-type protein (Homo sapiens, UniProt P01112). Description: Binding to HRAS by surface plasmon resonance (SPR), Single Cycle Kinetics. The conditions noted are these: SPR, GDP-bound HRAS wild-type protein vs GDP-bound KRAS wild-type protein.
Where [4] appears, read: SPR Single Cycle Kinetics, 1:1 binding model.

Read-outs that look alike come from different tables or passages of the source. *1 amine or outer side, *2 acyl side, *3 side chain or, on linkers, in order; H or OH if unused. Where a SMILES comes first, the peptide text is derived from it. Bridges are numbered along the chain shown (N, C = ends). [ ]: non-standard residue; d: D form. The star is where a group is joined. hPhe(3-Cl-4-CF3) = N[C@@H](CCc1ccc(C(F)(F)F)c(Cl)c1)C(=O)O; NPrPhe(4-CF3) = CCCN[C@@H](Cc1ccc(C(F)(F)F)cc1)C(=O)O; X20 = Cc1ccc(C[C@@H](C(=O)[*:2])N(CC2CCCC2)[*:1])cc1; NMeGly(cPent) = CN[C@H](C(=O)O)C1CCCC1; NMeD = CN[C@@H](CC(=O)O)C(=O)O; NMeL = CN[C@@H](CC(C)C)C(=O)O; Morpholide = C1CN(*)CCO1; NMeA = CN[C@@H](C)C(=O)O; Ac5c = NC1(C(=O)O)CCCC1; Aze = O=C(O)[C@@H]1CCN1; Abu = CC[C@H](N)C(=O)O; Sar = CNCC(=O)O

GDP-bound KRAS wild-type protein, sequence (P01116 whole entry): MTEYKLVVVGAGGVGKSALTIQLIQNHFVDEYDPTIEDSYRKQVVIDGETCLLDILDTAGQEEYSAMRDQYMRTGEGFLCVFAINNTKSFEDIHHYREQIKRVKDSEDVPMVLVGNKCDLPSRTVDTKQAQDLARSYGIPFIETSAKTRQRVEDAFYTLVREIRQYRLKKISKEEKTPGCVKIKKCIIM
GDP-bound HRAS wild-type protein, sequence (P01112 whole entry): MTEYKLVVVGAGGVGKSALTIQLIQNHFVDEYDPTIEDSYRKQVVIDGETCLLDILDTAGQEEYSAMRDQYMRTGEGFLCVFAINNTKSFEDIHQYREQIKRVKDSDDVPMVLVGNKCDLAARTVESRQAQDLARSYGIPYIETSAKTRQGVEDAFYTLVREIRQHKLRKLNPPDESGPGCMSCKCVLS

As for `CCCN(C)C(=O)[C@@H]1CC(=O)N(C)[C@@H](C2CCC2)C(=O)N[C@@H]([C@@H](C)CC)C(=O)N(C)CC(=O)N(C)[C@H]2C/C=C\CCN(C2=O)[C@@H](Cc2ccc(C(F)(F)F)cc2)C(=O)N(C)CC(=O)N[C@@H](CCc2ccc(C(F)(F)F)c(OC)c2)C(=O)N2C[C@@H](C)C[C@H]2C(=O)NC2(CCC2)C(=O)N(C)[C@@H](C2CCCC2)C(=O)N1C` [PP2072], in experiment [1] (SPR, Single Cycle Kinetics), the Kd – broadly, the equilibrium constant for the complex coming apart – amounted to 0.12 nM. Moreover, in experiment [2], the “NRAS/KRAS (ratio of KD value for NRAS to KD value for KRAS)” value was “A (a compound having 10 or more and less than 20 is denoted as A)”. Moreover, the “HRAS/KRAS (ratio of KD value for HRAS to KD value for KRAS)” value in experiment [3] was “A (a compound having 10 or more and less than 20 is denoted as A)”.

Consider `CC[C@H](C)[C@@H]1NC(=O)[C@H](CC(C)C)N(C)C(=O)C[C@@H](C(=O)N2CCOCC2)N(C)C(=O)[C@H](C2CCCC2)N(C)C(=O)C2(CCCC2)NC(=O)[C@@H]2CCCN2C(=O)[C@H](CCc2ccc(C(F)(F)F)c(Cl)c2)NC(=O)CN(C)C(=O)[C@H](Cc2ccc(C)cc2)N(CC2CCCC2)C(=O)[C@@H]2CCN2C(=O)[C@H](C)N(C)C1=O` [PP0084] ([NMeL]I[NMeA][Aze][X20][Sar][hPhe(3-Cl-4-CF3)]P[Ac5c][NMeGly(cPent)][NMeD]-Morpholide; lactam N-11), for which, in experiment [1] (setting [4]), the equilibrium dissociation constant (Kd) is 2.7 nM. Further, the “NRAS/KRAS (ratio of KD value for NRAS to KD value for KRAS)” value in experiment [2] was “C (A compound having a KD ratio of 0.1 or more and less than 3 is denoted as C)”. In addition, the “HRAS/KRAS (ratio of KD value for HRAS to KD value for KRAS)” value in experiment [3] is “B (a compound having 3 or more and less than 10 is denoted as B)”.

`CC[C@H](C)[C@@H]1NC(=O)[C@H](CC(C)C)N(C)C(=O)C[C@@H](C(=O)N2CCOCC2)N(C)C(=O)[C@H](C2CCCC2)N(C)C(=O)C2(CCC2)NC(=O)[C@@H]2C[C@@H](O)CN2C(=O)[C@H](CCc2cc(F)c(C(F)(F)F)c(F)c2)NC(=O)CN(C)C(=O)[C@H](Cc2ccc(C(F)(F)F)cc2)N2CCCC[C@@H](C2=O)N(C)C(=O)CN(C)C1=O` [PP0868]: in experiment [1] (SPR, Single Cycle Kinetics), the Kd worked out at 0.053 nM. Also, in experiment [2], the “NRAS/KRAS (ratio of KD value for NRAS to KD value for KRAS)” value was “C (A compound having a KD ratio of 0.1 or more and less than 3 is denoted as C)”. Besides, the “HRAS/KRAS (ratio of KD value for HRAS to KD value for KRAS)” value in experiment [3] was “B (a compound having 3 or more and less than 10 is denoted as B)”.

Turning to `CC[C@H](C)[C@@H]1NC(=O)[C@H](CC(C)C)N(C)C(=O)C[C@@H](C(=O)N2CCOCC2)N(C)C(=O)[C@H](C2CCCC2)N(C)C(=O)C2(CCCC2)NC(=O)[C@H](C)N(CC)C(=O)[C@H](CCc2cc(F)c(C(F)(F)F)c(F)c2)NC(=O)CN(C)C(=O)[C@H](Cc2ccc(C(F)(F)F)cc2)N2CCCCC[C@@H](C2=O)N(C)C(=O)CN(C)C1=O` [PP0515], the Kd in experiment [1] (setting [4]) was determined as 29 nM. The “NRAS/KRAS (ratio of KD value with respect to NRAS to KD value with respect to KRAS)” value in experiment [2] was “B (a compound having 3 or more and less than 10 is denoted as B)”. For the same molecule, in experiment [3], the “HRAS/KRAS (ratio of KD value with respect to HRAS to KD value with respect to KRAS)” value is “B (a compound having 3 or more and less than 10 is denoted as B)”.

Turning to `CC[C@H](C)[C@@H]1NC(=O)[C@H](CC(C)C)N(C)C(=O)C[C@@H](C(=O)N2CCOCC2)N(C)C(=O)[C@H](C2CCCC2)N(C)C(=O)C2(CCCC2)NC(=O)[C@@H]2CCCN2C(=O)[C@H](CCc2cc(F)c(C(F)(F)F)c(F)c2)NC(=O)CN(C)C(=O)[C@H](Cc2ccc(C(F)(F)F)cc2)N2CCCC[C@@H](C2=O)N(C)C(=O)[C@H](C)NC1=O` [PP0543], the dissociation constant Kd in experiment [1] (setting [4]) turned out to be 1 nM. For the same molecule, the “NRAS/KRAS (ratio of KD value with respect to NRAS to KD value with respect to KRAS)” value in experiment [2] was “B (a compound having 3 or more and less than 10 is denoted as B)”. For the same molecule, in experiment [3], the “HRAS/KRAS (ratio of KD value with respect to HRAS to KD value with respect to KRAS)” value is “B (a compound having 3 or more and less than 10 is denoted as B)”.

For `CCCN1C(=O)CN(C)C(=O)CN(C)C(=O)[C@H](CC)NC(=O)[C@H](CC(C)C)N(C)C(=O)C[C@@H](C(=O)N2CCOCC2)N(C)C(=O)[C@H](C2CCCC2)N(C)C(=O)C2(CCCC2)NC(=O)[C@@H]2CCCN2C(=O)[C@H](CCc2ccc(C(F)(F)F)c(Cl)c2)NC(=O)CN(C)C(=O)[C@@H]1Cc1ccc(C(F)(F)F)cc1` [PP0248] ([NMeL][Abu][Sar][Sar][NPrPhe(4-CF3)][Sar][hPhe(3-Cl-4-CF3)]P[Ac5c][NMeGly(cPent)][NMeD]-Morpholide; lactam N-11), the Kd in experiment [1] (setting [4]) was 1.1 nM. Further, the “NRAS/KRAS (ratio of KD value for NRAS to KD value for KRAS)” value in experiment [2] was “B (a compound having 3 or more and less than 10 is denoted as B)”. In addition, the “HRAS/KRAS (ratio of KD value for HRAS to KD value for KRAS)” value in experiment [3] is “B (a compound having 3 or more and less than 10 is denoted as B)”.

`CCC[C@@H]1C[C@H]2C(=O)NC3(CC(C)(C)C3)C(=O)N(C)[C@@H](C3CCCC3)C(=O)N(C)[C@H](C(=O)N(C)C)CC(=O)N(C)[C@@H](COC)C(=O)N[C@@H]([C@@H](C)CC)C(=O)N(C)CC(=O)N(C)[C@H]3C/C=C\CCN(C3=O)[C@@H](Cc3ccc(C(F)(F)F)cc3)C(=O)N(C)CC(=O)N[C@@H](CCc3ccc(C(F)(F)F)c(Cl)c3)C(=O)N2C1` [PP2275]: the Kd in experiment [1] (SPR, Single Cycle Kinetics) is 0.36 nM. For the same molecule, the “NRAS/KRAS (ratio of KD value for NRAS to KD value for KRAS)” value in experiment [2] is “A (a compound having 10 or more and less than 20 is denoted as A)”. The “HRAS/KRAS (ratio of KD value for HRAS to KD value for KRAS)” value in experiment [3] is “A (a compound having 10 or more and less than 20 is denoted as A)”.
